Data set [1] concerns IK1 (inward rectifier K^+ current). Kind of data set: Voltage-clamp measurement of IK1 in guinea pig ventricular myocytes. The format is cell-based. As to conditions: @ 3 μM. As for the experimental part:
(§1) Guinea pig ventricular myocytes were isolated using a modification of the procedure described by Mitra et al., Am. J. Physiol. 249:H1056-60 (1985). Excised hearts were perfused through the aorta (retrograde fashion) at a rate of 10 ml/min with oxygenated, warmed (37° C.) solutions described below. The heart was initially perfused for 7 minutes with a Tyrode's solution containing, (in mM): 132 NaCl, 4 KCl, 1.2 MgCl2, 10 HEPES, 5 glucose, pH=7.2. The heart was then perfused with the same nominally Ca^2+ -free solution containing 150 units/ml Type II collagenase (Worthington) and 0.5 units/ml Type XIV protease (Sigma) for 8 minutes. This perfusate was followed by a Tyrode's solution containing 0.2 mM CaCl2 (without enzymes) for 5 minutes. The digested ventricles were cut into small pieces and gently shaken until cells were visibly dispersed. The cells were stored at room temperature until use, within 8 hours after isolation.
(§2) The suction microelectrode technique described by Giles, W. R. and Shibata, E. F., "Voltage clamp of bull-frog cardiac pacemaker cells: a quantitative analysis of potassium currents", J. Physiol. 368:265-292 (1985) was used to voltage clamp the cells. Microelectrodes were made by using a two stage puller from square bore (1.0 mm o.d.) borosilicate capillary tubing. Pipettes were filled with 0.5 M K gluconate, 25 mM KCl and 5 mM K2 ATP. The electrodes had resistances of 3 to 7 M.OMEGA. when filled with this solution. After establishing whole-cell recording mode, negative pressure was maintained on the pipette using a 1 ml gas-tight syringe attached via air tight tubing to the suction port of the microelectrode holder. This minimized dialysis of the cell with the pipette solution.
(§3) To record K^+ currents, the cells were bathed in a Ca^2+ -free Tyrode's solution containing […]. […] To record Ca^2+ currents, the cells were bathed in Tyrode's solution containing 1.8 mM Ca^2+ without nisoldipine. The cell chamber was superfused with solutions at a rate of 1-2 ml/minute, while maintaining the temperature at 35±1° C. A List EPC-7 clamp amplifier was used to voltage clamp the isolated cells. […] (Sanguinetti M. C. and Jurkiewicz, N. K., "Two components of cardiac delayed rectifier K^+ current: Differential sensitivity to block by Class III antiarrhythmic agents", J. Gen Physiol 1990; 96:194-214.) Data was analyzed as % block from control membrane currents.
(§4) Nisoldipine was prepared as a 4 mM stock solution in polyethylene glycol 200. […] At the final concentrations used neither polyethylene glycol 200 nor dimethyl sulfoxide had any effect on any of the measured membrane currents.
(§5) Selectivity for block of cardiac K^+ channels, IK1, IKr, and IKs was determined as previously described in guinea pig ventricular myocytes (U.S. Pat. No. 5,428,031).

Data set [2] has as its target T1, IKr (rapidly activating delayed rectifier K^+ current) (Cavia porcellus, UniProt O08703).
T1 construct: Guinea pig ventricular myocytes were isolated; from tissue; host or cells: isolated guinea pig ventricular myocytes
T1 sequence (O08703 1-1294): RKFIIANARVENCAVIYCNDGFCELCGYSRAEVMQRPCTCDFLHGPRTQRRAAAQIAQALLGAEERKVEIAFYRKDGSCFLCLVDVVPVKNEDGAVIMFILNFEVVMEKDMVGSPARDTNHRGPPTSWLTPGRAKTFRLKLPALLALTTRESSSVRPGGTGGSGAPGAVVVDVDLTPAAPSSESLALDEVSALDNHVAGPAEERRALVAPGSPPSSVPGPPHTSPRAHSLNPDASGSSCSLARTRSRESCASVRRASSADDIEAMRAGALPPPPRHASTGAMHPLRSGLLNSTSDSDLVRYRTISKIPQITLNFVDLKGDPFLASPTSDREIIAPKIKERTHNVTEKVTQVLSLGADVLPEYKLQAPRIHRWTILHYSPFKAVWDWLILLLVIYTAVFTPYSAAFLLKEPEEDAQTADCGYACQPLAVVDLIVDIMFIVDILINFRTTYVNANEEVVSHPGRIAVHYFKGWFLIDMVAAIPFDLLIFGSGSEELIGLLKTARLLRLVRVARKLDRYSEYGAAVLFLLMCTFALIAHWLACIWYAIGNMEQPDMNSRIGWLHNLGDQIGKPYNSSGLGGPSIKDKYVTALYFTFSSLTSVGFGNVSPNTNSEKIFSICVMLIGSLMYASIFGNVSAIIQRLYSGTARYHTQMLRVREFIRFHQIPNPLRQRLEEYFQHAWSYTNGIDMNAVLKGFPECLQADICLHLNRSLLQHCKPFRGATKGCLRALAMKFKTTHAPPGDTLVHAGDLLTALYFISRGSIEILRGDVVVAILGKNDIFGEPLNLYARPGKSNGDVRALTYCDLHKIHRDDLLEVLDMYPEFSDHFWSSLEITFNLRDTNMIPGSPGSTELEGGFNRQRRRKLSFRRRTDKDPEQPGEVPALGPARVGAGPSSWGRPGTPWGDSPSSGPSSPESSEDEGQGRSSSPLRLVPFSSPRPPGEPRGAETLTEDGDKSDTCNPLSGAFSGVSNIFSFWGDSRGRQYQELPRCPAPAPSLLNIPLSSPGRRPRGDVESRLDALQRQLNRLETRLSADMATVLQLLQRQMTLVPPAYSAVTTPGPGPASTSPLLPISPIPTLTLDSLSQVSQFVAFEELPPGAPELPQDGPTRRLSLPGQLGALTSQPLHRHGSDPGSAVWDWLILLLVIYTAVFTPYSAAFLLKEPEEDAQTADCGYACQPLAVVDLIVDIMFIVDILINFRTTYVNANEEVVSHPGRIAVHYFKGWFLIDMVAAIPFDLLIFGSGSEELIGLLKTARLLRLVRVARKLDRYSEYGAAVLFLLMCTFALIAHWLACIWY
The data set can be described thus: Voltage-clamp measurement of IKr in guinea pig ventricular myocytes. The settings on record: @ 3 μM; read-out: % Block (Guinea Pig Ventricle) IKr. The format is cell-based. The procedure: as §1, §2, §3, §4, §5

In data set [3] the target is T2, IKs (slowly activating delayed rectifier K^+ current) (Cavia porcellus, UniProt O70344).
T2 construct: Guinea pig ventricular myocytes were isolated; from tissue; host or cells: isolated guinea pig ventricular myocytes
T2 sequence (O70344 whole entry): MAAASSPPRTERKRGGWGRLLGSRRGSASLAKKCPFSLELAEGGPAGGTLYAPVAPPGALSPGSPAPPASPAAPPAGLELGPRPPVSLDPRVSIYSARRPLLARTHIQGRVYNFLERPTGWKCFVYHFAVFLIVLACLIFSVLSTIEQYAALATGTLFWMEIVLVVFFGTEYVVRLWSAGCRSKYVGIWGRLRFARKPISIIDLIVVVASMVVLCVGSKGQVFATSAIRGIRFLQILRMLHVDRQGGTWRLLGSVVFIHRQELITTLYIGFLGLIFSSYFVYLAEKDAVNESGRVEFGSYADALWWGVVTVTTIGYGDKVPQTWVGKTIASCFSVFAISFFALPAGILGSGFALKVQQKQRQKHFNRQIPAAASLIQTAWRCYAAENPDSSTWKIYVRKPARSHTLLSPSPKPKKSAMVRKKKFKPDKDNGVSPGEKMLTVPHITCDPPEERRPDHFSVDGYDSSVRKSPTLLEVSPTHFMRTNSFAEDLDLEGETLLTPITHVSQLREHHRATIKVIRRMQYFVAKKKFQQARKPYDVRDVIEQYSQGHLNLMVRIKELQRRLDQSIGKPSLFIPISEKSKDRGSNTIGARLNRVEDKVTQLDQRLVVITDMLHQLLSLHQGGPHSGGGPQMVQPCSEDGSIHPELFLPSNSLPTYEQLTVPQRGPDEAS
T2 sequence (Q60409 whole entry partner): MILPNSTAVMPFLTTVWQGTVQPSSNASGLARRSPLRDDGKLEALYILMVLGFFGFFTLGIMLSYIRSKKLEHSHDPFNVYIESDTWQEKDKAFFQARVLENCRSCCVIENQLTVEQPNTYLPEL
The data set can be described thus: Voltage-clamp measurement of IKs in guinea pig ventricular myocytes. The format is cell-based. The settings on record: @ 3 μM; read-out: % Block (Guinea Pig Ventricle) IKs. The procedure: as §1, §2, §3, §4, §5

Molecules are shown by their SMILES. Like-named read-outs stand apart in the source and are kept apart here.

Protocol for atrial flutter: In this model, atrial flutter was induced following a Y-shaped surgical lesion comprised of an intercaval incision and a connecting incision across the right atrium. […] Bipolar electrodes also were sutured to the left ventricle for measurement of ventricular excitation threshold (VET) and ventricular relative (VRRP at 2× VET) and effective refractory periods (VERP at 10×VET). The following cardiac electrophysiologic parameters also were measured before test agent administration and at the termination of the study: AH interval, an index of AV nodal conduction; HV interval, an index of His-ventricular conduction time; P-A interval, an index of intra-atrial conduction; and H-EG interval, an index of ventricular conduction; and paced ECG QT interval. AV nodal functional refractory period (AVNFRP) and SA conduction time (SACT) were determined by the introduction of atrial extrastimuli during sinus rhythm, and the monitoring of ventricular response. Electrocardiographic intervals were determined during sinus rhythm; the rate-corrected ECG QTc interval was calculated as: QTc=QT (msec)/√R-R (sec).
Sustained atrial flutter was initiated in three dogs by electrical burst pacing (6-20 Hz) of the atria; atrial rates ranged from 440-530 cycles/min.

With `CC1CCC(C(C)C)C(P(=O)(c2ccccc2)c2ccccc2)C1` (centres unmarked) [Compound D, (2-Isopropyl-5-methylcyclohexyl)diphenylphosphine oxide], in data set [1], the “% Block (Guinea Pig Ventricle) IK1” value is 15%. The inhibition at 3 µM worked out at 3% in data set [2] and 25% in data set [3]. Besides, the “effect on ventricular function” value with atrial flutter (dog, in vivo) is “no indication of effect on ventricular function”. The “time to termination of atrial arrhythmia after test agent administration” value in the data set on atrial flutter (i.v. bolus 1 mg/kg (three dogs) or 10 mg/kg (fourth dog)) is 10 to 120 s. Also, in the data set on atrial flutter (i.v. bolus 1 mg/kg (three dogs) or 10 mg/kg (fourth dog), initial rates 450-560 cycles/min), the “atrial rate during atrial flutter” value was “slowed atrial rate”. In addition, the “termination of atrial arrhythmia” value in the data set with atrial flutter (i.v. bolus 1 mg/kg, in three of four dogs) is recorded as “terminated the atrial arrhythmia”; in the data set with atrial flutter (i.v. bolus 10 mg/kg, in the fourth of four dogs) it was “terminated the atrial arrhythmia”.

The values are drawn from US5935945A, “Methods of treating or preventing cardiac arrhythmia” (Merck & Co., Inc., priority 1997, dated 1999).
